Data reported in patent publication US20140045823A1 (Neurocrine Biosciences, Inc., priority 2012, published 2014).

Key:
[1] = target: T1, mutant form of the human GPR119 receptor (Homo sapiens, UniProt Q8TDV5, S329A/T327A); assay: LANCE cAMP-384 assay in HEK293 cells stably expressing a mutant form of the human GPR119 receptor; assay type: cell-based; settings: mutant human GPR119, LANCE cAMP-384 Kit, 20 min at 37° C., read-out: EC50 (cAMP accumulation)
T1 construct: expressed in transfected cells
T1 sequence (Q8TDV5 with tags, fused parts or gaps T327A/S329A): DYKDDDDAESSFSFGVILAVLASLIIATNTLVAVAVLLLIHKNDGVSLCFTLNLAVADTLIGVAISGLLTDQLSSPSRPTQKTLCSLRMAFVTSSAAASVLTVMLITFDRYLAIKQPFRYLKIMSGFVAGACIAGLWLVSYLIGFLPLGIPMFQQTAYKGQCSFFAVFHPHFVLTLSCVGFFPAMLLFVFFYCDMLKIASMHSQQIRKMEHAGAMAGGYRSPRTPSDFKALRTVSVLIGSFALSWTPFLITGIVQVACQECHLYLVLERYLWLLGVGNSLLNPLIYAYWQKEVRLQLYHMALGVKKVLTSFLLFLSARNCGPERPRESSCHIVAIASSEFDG
Procedure: Quantitative detection of cAMP accumulation from cells expressing human GPR119 receptor is achieved using Perkin Elmer's LANCE cAMP-384 Kit (Cat#AD0264) according to the manufacturer's protocol. Briefly, HEK293 cells stably expressing a mutant form of the human GPR119 receptor as assay tool (Methionine 1 replaced with the amino acid sequence […], and T327 & S329 changed to alanines; SEQ ID No. 1) are grown to 50-70% confluency in cell culture media (DMEM, 10% heat inactivated Fetal Bovine Serum, 50 I.U./mL penicillin, 50 μg/mL streptomycin, 10 mM HEPES, 20 μg/mL G418 Sulfate). On the day of the assay, GPR119 stable HEK293 cells are lifted from the tissue culture plate and 1000 cells/well are incubated along with various concentrations of test compounds for 20 min at 37° C. Detection Buffer (50 mM HEPES, 10 mM calcium chloride, 0.35% Triton X-100, 1 mg/mL BSA) containing cAMP-specific antibody is then added to all wells and allowed to equilibrate in the dark for 10 minutes at room temperature. Upon equilibration, Detection Buffer containing europium-labeled cAMP tracer complex is added to all wells and allowed to react for 1 hour at room temperature. After 1 hour, bound europium-labeled cAMP tracer is measured using a Perkin Elmer Envision plate reader. The quantity of cAMP generated in each well is derived from a standard curve. EC50 is determined using nonlinear regression analysis of the cAMP values over a range of agonist concentration (12 points spanning the range from 30 μM to […]).

human GPR119 = target: T2, human GPR119 (Homo sapiens, UniProt Q8TDV5); assay: AlphaScreen cAMP assay in MIN6 cells stably transfected with human GPR119; assay type: cell-based; settings: Min-6/hGPR119 cells, 45 min at room temperature
T2 construct: expression vector for human GPR119 cDNA (Acc. No. NP_848566); expressed in transfected cells; Min-6/hGPR119
T2 sequence (Q8TDV5 1-335): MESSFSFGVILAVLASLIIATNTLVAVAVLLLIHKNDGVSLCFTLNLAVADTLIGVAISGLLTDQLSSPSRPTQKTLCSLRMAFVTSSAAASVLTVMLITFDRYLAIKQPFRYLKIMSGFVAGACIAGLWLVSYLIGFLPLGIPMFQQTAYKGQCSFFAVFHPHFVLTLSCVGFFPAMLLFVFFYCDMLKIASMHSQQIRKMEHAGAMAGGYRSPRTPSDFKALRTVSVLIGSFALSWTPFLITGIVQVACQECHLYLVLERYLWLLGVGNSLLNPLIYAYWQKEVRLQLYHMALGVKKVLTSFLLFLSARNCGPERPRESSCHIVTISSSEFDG
Procedure, shortened: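 MIN6 cells stably expressing human GPR119, seeded 10000/well and grown 24 h, were exposed to compound in pH 7.4 buffer with 0.5 mM IBMX, 0.1% BSA and 1% DMSO for 45 min at room temperature. Intracellular cAMP then measured by AlphaScreen.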

| SMILES | EC50 [1] | EC50 (human GPR119) |
| --- | --- | --- |
| Cc1nnnn1-c1ccc(C(=O)N(C2CC2)C2CCN(C(=O)OC(C)C)CC2F)cn1 (single isomer, unassigned) [Example 249] | 146 nM | – |
| COCCNC(=O)c1ccc(-c2ncc(C(=O)N(C3CC3)C3CCN(C(=O)OC(C)(C)C)CC3)cn2)cc1 [Example 243, 4-(Cyclopropyl-{2-[4-(2-methoxy-ethylcarbamoyl)-phenyl]-pyrimidine-5-carbonyl}-amino)-piperidine-1-carboxylic acid tert-butyl ester] | – | 309 nM |
| CC(C)(C)OC(=O)N1CCC(N(C(=O)c2cnc(-c3ccc(C(=O)NCC4CCCO4)cc3)nc2)C2CC2)CC1 (stereo not shown) [Example 244, 4-[Cyclopropyl-(2-{4-[(tetrahydro-furan-2-ylmethyl)-carbamoyl]-phenyl)-pyrimidine-5-carbonyl)-amino]-piperidine-1-carboxylic acid tert-buyl ester] | – | 237 nM |
| CC(C)(C)OC(=O)N1CCC(N(C(=O)c2cnc(-c3ccc(C(=O)N4CCC[C@@H]4C#N)cc3)nc2)C2CC2)CC1 [Example 245, 4-({2-[4-(2-Cyano-pyrrolidine-1-carbonyl)-phenyl]-pyrimidine-5-carbonyl}-cyclopropyl-amino)-piperidine-1-carboxylic acid tert-butyl ester] | – | 322 nM |
| Cc1cnc(CNC(=O)c2ccc(-c3ncc(C(=O)N(C4CC4)C4CCN(C(=O)OC(C)(C)C)CC4)cn3)cc2)s1 [Example 246, 4-[Cyclopropyl-(2-{4-[(5-methyl-thiazol-2-ylmethyl)-carbamoyl]-phenyl}-pyrimidine-5-carbonyl)-amino]-piperidine-1-carboxylic acid tert-butyl ester] | – | 169 nM |
| CC(C)(C)OC(=O)N1CCC(N(C(=O)c2cnc(-n3ccnc3)nc2)C2CC2)CC1 [Example 247] | – | 51 nM |
| CC(C)OC(=O)N1CC[C@@H](N(C(=O)c2cnc(-n3cncn3)cn2)C2CC2)[C@@H](F)C1 [Example 248] | 54 nM | – |
| Cc1nccn1-c1ncc(C(=O)N(C2CC2)[C@@H]2CCN(C(=O)OC(C)C)C[C@@H]2F)cn1 [Example 250] | 45 nM | – |
| Cc1nccn1-c1ncc(C(=O)N(C2CC2)[C@H]2CCN(C(=O)OC(C)C)C[C@H]2F)cn1 [Example 251] | 587 nM | – |
| Cc1ncnn1-c1ccc(C(=O)N(C2CC2)[C@@H]2CCN(C(=O)OC(C)C)C[C@@H]2F)cn1 [Example 252] | 193 nM | – |
| CC(C)OC(=O)N1CCC(N(C(=O)c2cnc(-n3cncn3)cn2)C2CC2)CC1 [Example 253] | 435 nM | – |
| Cc1nccn1-c1cnc(C(=O)N(C2CC2)C2CCN(C(=O)OC(C)C)CC2)cn1 [Example 254] | 518 nM | – |
| Cc1ncn(-c2cnc(C(=O)N(C3CC3)C3CCN(C(=O)OC(C)C)CC3)cn2)n1 [Example 255] | 1550 nM | – |
| Cc1nccn1-c1ncc(C(=O)N(C2CC2)C2CCN(C(=O)OC(C)C)CC2)cn1 [Example 256] | 265 nM | – |
| CC(C)OC(=O)N1CC[C@H](N(C(=O)c2cnc(-n3cncn3)cn2)C2CC2)[C@H](F)C1 [Example 257] | 801 nM | – |
| C[C@H](OC(=O)N1CCC(N(C(=O)c2cnc(-c3cnco3)cn2)C2CC2)CC1)C(F)(F)F [Example 258, 4-[Cyclopropyl-(5-oxazol-5-yl-pyrazine-2-carbonyl)-amino]-piperidine-1-carboxylic acid (S)-2,2,2-trifluoro-1-methyl-ethyl ester] | – | 61 nM |
